Reference: US12187723B2 (BRISTOL-MYERS SQUIBB COMPANY, priority 2019, dated 2025)

What follows are compounds tested against T1, human TLR8 (Homo sapiens, UniProt Q9NR97) (assay: TLR8 inhibition reporter assay (HEK-Blue SEAP)). Conditions: HEK-Blue cells overexpressing human TLR8, R848 15.9 μM, 22 hour incubation.
T1 construct: host or cells: HEK-Blue cells
T1 sequence (Q9NR97 27-1041): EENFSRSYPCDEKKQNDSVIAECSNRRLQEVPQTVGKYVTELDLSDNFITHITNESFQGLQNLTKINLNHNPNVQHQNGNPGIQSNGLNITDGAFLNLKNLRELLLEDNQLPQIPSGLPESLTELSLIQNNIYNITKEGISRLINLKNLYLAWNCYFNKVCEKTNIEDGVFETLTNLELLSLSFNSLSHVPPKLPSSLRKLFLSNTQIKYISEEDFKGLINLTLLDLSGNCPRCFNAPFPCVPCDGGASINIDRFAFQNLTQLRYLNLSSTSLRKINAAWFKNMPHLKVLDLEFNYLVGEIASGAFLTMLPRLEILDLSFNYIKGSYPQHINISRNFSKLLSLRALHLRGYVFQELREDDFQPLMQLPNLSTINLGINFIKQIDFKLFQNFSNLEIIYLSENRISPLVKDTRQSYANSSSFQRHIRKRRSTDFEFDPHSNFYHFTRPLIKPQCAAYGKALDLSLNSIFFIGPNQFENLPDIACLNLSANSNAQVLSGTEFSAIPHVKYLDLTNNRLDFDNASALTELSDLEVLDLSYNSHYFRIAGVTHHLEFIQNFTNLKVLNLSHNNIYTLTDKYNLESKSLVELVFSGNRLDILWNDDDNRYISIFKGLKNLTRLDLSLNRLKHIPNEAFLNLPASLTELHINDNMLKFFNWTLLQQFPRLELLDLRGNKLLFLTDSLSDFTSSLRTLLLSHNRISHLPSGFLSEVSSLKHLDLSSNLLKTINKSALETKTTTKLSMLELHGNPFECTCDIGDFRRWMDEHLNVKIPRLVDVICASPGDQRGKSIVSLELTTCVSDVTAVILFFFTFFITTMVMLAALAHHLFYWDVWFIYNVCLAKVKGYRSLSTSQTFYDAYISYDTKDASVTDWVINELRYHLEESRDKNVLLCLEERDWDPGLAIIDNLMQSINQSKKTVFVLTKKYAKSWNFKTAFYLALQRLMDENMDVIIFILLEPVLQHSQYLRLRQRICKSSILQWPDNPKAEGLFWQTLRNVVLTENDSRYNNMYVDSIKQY
Type: cell-based
Description: TLR7/8/9 Inhibition Reporter Assays
HEK-Blue™-cells (Invivogen) overexpressing human TLR7, TLR8 or TLR9 receptors were used for screening inhibitors of these receptors using an inducible SEAP (secreted embryonic alkaline phosphatase) reporter gene under the control of the IFN-β minimal promoter fused to five NF-κB and AP-1-binding sites. Briefly, cells are seeded into Greiner 384 well plates (15000 cells per well for TLR7, 20,000 for TLR8 and 25,000 for TLR9) and then treated with test compounds in DMSO to yield a final dose response concentration range of 0.05 nM-50 μM. After a 30 minute compound pre-treatment at room temperature, the cells are then stimulated with a TLR7 ligand (gardiquimod at a final concentration of 7.5 μM), TLR8 ligand (R848 at a final concentration of 15.9 μM) or TLR9 ligand (ODN2006 at a final concentration of 5 nM) to activate NF-κB and AP-1 which induce the production of SEAP. After a 22 hour incubation at 37° C., 5% CO2, SEAP levels are determined with the addition of HEK-Blue™ Detection reagent (Invivogen), a cell culture medium that allows for detection of SEAP, according to manufacturer's specifications. The percent inhibition is determined as the % reduction in the HEK-Blue signal present in wells treated with agonist plus DMSO alone compared to wells treated with a known inhibitor.

IC50 [nM]	Compound
7.58	COc1cc(-c2cc3[nH]c(=O)n(C4CCN(C(C)C)CC4)c3cc2C(C)C)cn2ncnc12 [Example 163, 6-isopropyl-1-(1-isopropylpiperidin-4-yl)-5-(8-methoxy-[1,2,4]triazolo[1,5-a]pyridin-6-yl)-1,3-dihydro-2H-benzo[d]imidazol-2-one]
4	COc1cc(-c2cc3[nH]c(=O)n([C@H]4CCCN(CC(C)C)C4)c3cc2C(C)C)cn2ncnc12 [Example 129, (S)-1-(1-isobutylpiperidin-3-yl)-6-isopropyl-5-(8-methoxy-[1,2,4]triazolo[1,5-a]pyridin-6-yl)-1,3-dihydro-2H-benzo[d]imidazol-2-one]
50.3	Cc1cc2c(cc1-c1cc(C)c3ncnn3c1)[nH]c(=O)n2C1CCN(C(=O)CN(C)C)CC1 [Example 101, 1-(1-(dimethylglycyl)piperidin-4-yl)-6-methyl-5-(8-methyl-[1,2,4]triazolo[1,5-a]pyridin-6-yl)-1,3-dihydro-2H-benzo[d]imidazol-2-one]
0.82	CCc1cc2c(cc1-c1cc(OC)c3ncnn3c1)[nH]c(=O)n2[C@H]1CC[C@@H](NC(C)C)CC1 [Example 167, 6-ethyl-1-((1s,4s)-4-(isopropylamino)cyclohexyl)-5-(8-methoxy-[1,2,4]triazolo[1,5-a]pyridin-6-yl)-1,3-dihydro-2H-benzo[d]imidazol-2-one]
1.27	COc1cc(-c2cc3[nH]c(=O)n([C@@H]4CCCN(CC5CCOCC5)C4)c3cc2C(C)C)cn2ncnc12 [Example 139, (R)-6-isopropyl-5-(8-methoxy-[1,2,4]triazolo[1,5-a]pyridin-6-yl)-1-(1-((tetrahydro-2H-pyran-4-yl)methyl)piperidin-3-yl)-1,3-dihydro-2H-benzo[d]imidazol-2-one]
2.63	COc1cc(-c2cc3[nH]c(=O)n([C@H]4CCCN(CC5CC5)C4)c3cc2C(C)C)cn2ncnc12 (single isomer, unassigned) [Example 128]
4.06	CCN1CCC[C@@H](n2c(=O)[nH]c3cc(-c4cc(OC)c5ncnn5c4)c(C(F)(F)F)cc32)C1 [Example 110, (R)-1-(1-ethylpiperidin-3-yl)-5-(8-methoxy-[1,2,4]triazolo[1,5-a]pyridin-6-yl)-6-(trifluoromethyl)-1,3-dihydro-2H-benzo[d]imidazol-2-one]
2.37	COc1cc(-c2cc3[nH]c(=O)n([C@H]4CCCN(C)C4)c3cc2C(C)C)cn2ncnc12 [Example 119, (S)-6-isopropyl-5-(8-methoxy-[1,2,4]triazolo[1,5-a]pyridin-6-yl)-1-(1-methylpiperidin-3-yl)-1,3-dihydro-2H-benzo[d]imidazol-2-one]
5.9	COc1cc(-c2cc3[nH]c(=O)n([C@H]4CCCN(CC5CCC5)C4)c3cc2C(C)C)cn2ncnc12 [Example 133, (S)-1-(1-(cyclobutylmethyl)piperidin-3-yl)-6-isopropyl-5-(8-methoxy-[1,2,4]triazolo[1,5-a]pyridin-6-yl)-1,3-dihydro-2H-benzo[d]imidazol-2-one]
249	Cc1cc(-c2cc(C)c3ncnn3c2)cc2[nH]c(=O)n(C3CCN(C(C)C)CC3)c12 [Example 107, 1-(1-isopropylpiperidin-4-yl)-7-methyl-5-(8-methyl-[1,2,4]triazolo[1,5-a]pyridin-6-yl)-1,3-dihydro-2H-benzo[d]imidazol-2-one]
20	COc1cc(-c2cc3[nH]c(=O)n([C@@H]4CCCN(C5COC5)C4)c3cc2C(C)C)cn2ncnc12 [Example 135, (R)-6-isopropyl-5-(8-methoxy-[1,2,4]triazolo[1,5-a]pyridin-6-yl)-1-(1-(oxetan-3-yl)piperidin-3-yl)-1,3-dihydro-2H-benzo[d]imidazol-2-one]
1280	Cc1cc(-c2ccc3c(c2)[nH]c(=O)n3C2CCN(C)CC2)cn2ncnc12 [Example 4, 5-(8-methyl-[1,2,4]triazolo[1,5-a]pyridin-6-yl)-1-(1-methylpiperidin-4-yl)-1,3-dihydro-2H-benzo[d]imidazol-2-one]
2.37	COc1cc(-c2cc3[nH]c(=O)n([C@H]4CCCN(CC5CCOCC5)C4)c3cc2C(C)C)cn2ncnc12 [Example 125, (S)-6-isopropyl-5-(8-methoxy-[1,2,4]triazolo[1,5-a]pyridin-6-yl)-1-(1-((tetrahydro-2H-pyran-4-yl)methyl)piperidin-3-yl)-1,3-dihydro-2H-benzo[d]imidazol-2-one]
1.09	CCC(CC)CN1CCC[C@@H](n2c(=O)[nH]c3cc(-c4cc(OC)c5ncnn5c4)c(C(C)C)cc32)C1 [Example 148, (R)-1-(1-(2-ethylbutyl)piperidin-3-yl)-6-isopropyl-5-(8-methoxy-[1,2,4]triazolo[1,5-a]pyridin-6-yl)-1,3-dihydro-2H-benzo[d]imidazol-2-one]
83.1	CCN1CCC(n2c(=O)[nH]c3cc(-c4cc(C)c5ncnn5c4)cc(C)c32)CC1 [Example 108, 1-(1-ethylpiperidin-4-yl)-7-methyl-5-(8-methyl-[1,2,4]triazolo[1,5-a]pyridin-6-yl)-1,3-dihydro-2H-benzo[d]imidazol-2-one]
113	COc1cc(-c2cc3[nH]c(=O)n([C@@H]4CCCN(C5COC5)C4)c3cc2C(F)(F)F)cn2ncnc12 [Example 113, (R)-5-(8-methoxy-[1,2,4]triazolo[1,5-a]pyridin-6-yl)-1-(1-(oxetan-3-yl)piperidin-3-yl)-6-(trifluoromethyl)-1,3-dihydro-2H-benzo[d]imidazol-2-one]
2.64	CCN1CCC[C@@H](n2c(=O)[nH]c3cc(-c4cc(OC)c5ncnn5c4)c(C(C)C)cc32)C1 [Example 138, (R)-1-(1-ethylpiperidin-3-yl)-6-isopropyl-5-(8-methoxy-[1,2,4]triazolo[1,5-a]pyridin-6-yl)-1,3-dihydro-2H-benzo[d]imidazol-2-one]
6.05	Cc1c(-c2cc3[nH]c(=O)n([C@@H]4CCCN(C5COC5)C4)c3cc2C(C)C)cn2ncnc2c1C [Example 146, (R)-5-(7,8-dimethyl-[1,2,4]triazolo[1,5-a]pyridin-6-yl)-6-isopropyl-1-(1-(oxetan-3-yl)piperidin-3-yl)-1,3-dihydro-2H-benzo[d]imidazol-2-one]
46.3	CCN1CCC(n2c(=O)[nH]c3cc(-c4cc(C)c5ncnn5c4)c(C)cc32)CC1 [Example 6, 1-(1-ethylpiperidin-4-yl)-6-methyl-5-(8-methyl-[1,2,4]triazolo[1,5-a]pyridin-6-yl)-1,3-dihydro-2H-benzo[d]imidazol-2-one]

Compound	IC50 [nM]
COc1cc(-c2cc3[nH]c(=O)n(C4CCN(C5CCC5)CC4)c3cc2C(C)C)cn2ncnc12 [Example 156, 1-(1-cyclobutylpiperidin-4-yl)-6-isopropyl-5-(8-methoxy-[1,2,4]triazolo[1,5-a]pyridin-6-yl)-1,3-dihydro-2H-benzo[d]imidazol-2-one]	4.77
COc1cc(-c2cc3[nH]c(=O)n(C4CCN(C5CCOCC5)CC4)c3cc2C(C)C)cn2ncnc12 [Example 158, 6-isopropyl-5-(8-methoxy-[1,2,4]triazolo[1,5-a]pyridin-6-yl)-1-(1-(tetrahydro-2H-pyran-4-yl)piperidin-4-yl)-1,3-dihydro-2H-benzo[d]imidazol-2-one]	16.2
